From BindingDB's records for doi:10.7270/Q2V1236D (Burnham Center For Chemical Genomics, 2009)

Target: his6-Siah1 (aa 81-282) (Homo sapiens, UniProt Q8IUQ4)
Assay: Siah-1 binding antagonists, dose response, biochemical, TR-FRET (AID 2141)

Sequence of his6-Siah1 (aa 81-282) (Q8IUQ4 whole entry, looked up, the tested form may be a part): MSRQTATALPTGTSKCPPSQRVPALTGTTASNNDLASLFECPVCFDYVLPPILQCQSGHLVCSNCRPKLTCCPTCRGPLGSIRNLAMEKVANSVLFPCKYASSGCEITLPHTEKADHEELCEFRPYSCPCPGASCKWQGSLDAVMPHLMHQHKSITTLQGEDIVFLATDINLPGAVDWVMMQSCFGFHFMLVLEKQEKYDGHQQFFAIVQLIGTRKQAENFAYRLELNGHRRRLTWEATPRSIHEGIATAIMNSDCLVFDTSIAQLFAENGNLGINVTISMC

Row | Compound | IC50 [µM]
1 | CC(C)(C)c1cc(-c2cs/c(=N\c3ccccc3)n2Cc2ccc(C(=O)O)cc2)cc(C(C)(C)C)c1O [4-[[4-(3,5-ditert-butyl-4-oxidanyl-phenyl)-2-phenylazanyl-1,3-thiazol-3-ium-3-yl]methyl]benzoic acid;bromide] | 6.69
2 | CCOC(=O)C1(C)CC(=Nc2ccc(O)cc2)C(=O)N1c1ccc(O)cc1 (stereo not given) | 50.7
3 | C[N+]1(CCNC(=O)CN=O)CCCCC1 | 130

Stronger by IC50, values ahead:

Row | IC50 [µM] | Compound
4 | 4.27 | O=C(Nc1ccc(Br)cc1)c1ccc(-n2c(O)c3c(c2O)CC=CC3)cc1 [4-[1,3-bis(oxidanylidene)-3a,4,7,7a-tetrahydroisoindol-2-yl]-N-(4-bromophenyl)benzamide]
5 | 2.93 | CC1(C)OC(C)(C)C(=CNc2ccc(O)cc2)C1=O [4-[(4-hydroxyanilino)methylene]-2,2,5,5-tetramethyldihydro-3(2H)-furanone]
